Measurements taken from US20220409617A1, “Drug Formulations and Methods of Treatment for Metabolic Disorders” (The Regents of the University of California, priority 2019, published 2022).

Assays:
[1] = Home-cage feeding study with suboptimal leptin (leptin sensitization); assay type: in vivo, mouse
Description: Leptin is secreted by adipocytes in proportion to their triglyceride content, signaling to the CNS when peripheral energy stores are full and food consumption should decrease. In HFD-fed mice, chronic increases in adiposity lead to elevations in circulating leptin with no accompanying decrease in food intake, a state that has been termed leptin-resistant. Reducing leptin levels in the blood restores leptin signaling in the hypothalamus (S. Zhao, et al., 2019, cited supra). Thus, the sphingolipid-like compound 893 should function as a leptin-sensitizing agent. To test this model, 18 week old lean, male C57BL/6J mice were treated intraperitoneally with a suboptimal dose of recombinant leptin at ZT8.5 and food intake and body weight measured over the next 18 h. […] In summary, the reduction in food intake in sphingolipid-like compound 893-treated mice is consistent with the reversal of mitochondrial fragmentation in the hypothalamus and likely due in part to the re-sensitization of anorexigenic POMG neurons to leptin when plasma leptin levels are decreased.
Mice were singly housed and allowed to acclimate for 72 h before food intake was monitored. Food consumption was determined by monitoring the weight of food in the hopper. Initial food and body weight measurements were taken at ZT9 and final measurements were taken 16 h later to capture the active period where most consumption occurred. Home cage feeding studies were performed with C57BL/6J mice maintained on a HFD for 24 weeks (33 weeks of age), or ob/ob mice at 8 weeks of age. Mice received vehicle or 120 mg/kg sphingolipid-like compound 893 by gavage at ZT8.5. For experiments involving leptin, 18 week old, SD fed (16% kcal from fat, 2020×, Envigo) C57BL/6J mice received vehicle or 120 mg/kg sphingolipid-like compound 893 by gavage at ZT8.5. […] One ob/ob mouse died during Echo MRI for unknown reasons after 6 d of treatment with sphingolipid-like compound 893; data from this mouse was analyzed prior to death.

[2] = test system: brain mitochondria; test: Brain (hypothalamus) mitochondrial morphology, citrate synthase staining; assay type: in vivo, mouse; settings: single oral dose 120 mg/kg, HFD-fed mice
Protocol: Preventing mitochondrial fission in the liver improves insulin sensitivity in mice with diet-induced obesity, while blocking fission in anorexigenic hypothalamic POMC neurons reduces food intake by restoring leptin sensitivity (A. Santoro, et al., 2017; and M. Schneeberger, et al., 2013, cited supra). To determine whether sphingolipid-like compound 893 was also effective in the hypothalamus, mitochondrial morphology was assessed in the brains of the same mice evaluated in FIG. 13. Due to the increased time required to remove the organ, brain mitochondria were visualized in fixed tissues by immunofluorescence microscopy rather than by NADH/NADPH autofluorescence. […] Sphingolipid-like compound 893 reversed these HFD-induced changes in mitochondrial morphology in the brains of 3 out of 4 animals examined (FIG. 14). […]
MEFs were washed twice with PBS and fixed with 4% paraformaldehyde for 10 min at RT. […] NADH/NADPH autofluorescence was detected with 740 nm excitation and 450±50 nm detectors using a Mai Tai two-photon laser. Fluorescence microscopy was performed on a Zeiss LSM 780 confocal using a 63× oil objective with a […] numerical aperture (NA) or using a Nikon TE2000-S inverted epifluorescence microscope with a 100× oil objective (1.3 NA) and a Photometrics CoolSNAP ES2 monochrome CCD camera. […]

In the case of `CCCCCCCCc1ccc([C@H]2CCN[C@@H]2CO)cc1.Cl` [compound 893], the “Food intake and body weight over 18 h, single agent” value ([1]; lean chow-fed 18 week old mice, leptin 2 mg/kg i.p. or 893 120 mg/kg by gavage) was “trend towards reduced food intake and body weight”, the “Food intake and body weight over 18 h, combined with leptin” value ([1]; lean chow-fed mice, 893 120 mg/kg by gavage plus leptin 2 mg/kg i.p.) was “statistically significant decrease in food intake and body weight” and the “Animals with reversal of HFD-induced changes in brain mitochondrial morphology” value [2] was 3 out of 4.
